The source of these data is US6444194B1, “Indium photosensitizers for PDT” (Miravant Pharmaceuticals, Inc., priority 1997, dated 2002).

Series [1] concerns Chinese hamster lung fibroblasts (V-79). Briefly: DC(50)(light): colony-formation phototoxicity after laser irradiation. The class given is cell-based. The conditions noted are these: V-79 cells; sensitizer incubation 16-24 hours; 12.5 mW/cm^2, total light dose 1.25 J/cm^2; concentration for lethal damage to 50% of cells. Here is the method:
For the Biological Evaluation, Chinese hamster lung fibroblasts (V-79) obtained from the American Tissue Culture Collection were grown in D-MEM supplemented with 10% fetal calf serum at 37° C., 5% CO2, and 95% humidity. These cells were used to evaluate the sensitizers for dark and light toxicity, and cellular uptake. Medium was replaced with 5% fetal calf serum supplemented medium during sensitizer incubations.
In the first phase, the combination of intracellular and extracellular concentration of photosensitizer required for lethal damage to 50% of the cells in culture (DC(50)) on light exposure was determined by plating cells at a density of 100 cells/cm^2 and incubating for 1-3 hours to allow attachment of the cells. Cells were incubated with various concentrations of sensitizer ([C]=0.01-1.0 μM) delivered in non-toxic concentrations of DMSO/5% dextrose solution or in some cases in egg yolk phosphatidase (EYP) for 16-24 hours. The cells were then irradiated with laser light using a tunable Lexel argon pumped dye laser at the band I absorption of the photosensitizer. Total power density was adjusted to 12.5 mW/cm^2 and a total light dose of 1.25 J/cm^2 was applied. After treatment, cells were washed with HBSS, refed with 10% FBS supplemented DMEM with phenol red and incubated for 3-5 days to allow colony formation. Cells were fixed in methanol, stained with Giemsa, and colonies were counted. Plating efficiency was determined using a control colony and the mean percent survival fraction plotted against the sensitizer concentration and the DC50 established (Table 5).

The nature of series [2]: Photophysical measurements of photosensitizers (λmax, ε, φ f). The class given is physicochemical. Details: λmax: unit not given here. The following applies: for ε: at λmax; for λmax: band I absorption maximum.
A further series deals with BA mammary carcinoma. In words: In vivo assay of photosensitizers on tumors (PDT tumor cure). Set-up: species or system C3H/HeJ mice. The following applies: light dose 200 J/cm^2, n = 10. Here is the method: Female C3H/HeJ mice (8-9 weeks old) were subjected to trochar implantation of BA mammary carcinoma on the hind leg of the animals. Animals having tumors ca 5 mm in diameter were entered into the in vivo screen. For each new photosensitizer, a group of at least three mice were used to ascertain a drug dose that caused a response as described in table 3 when treated with the appropriate wavelength of light. Generally in this series, animals were injected with 1 μ mole of sensitizer/Kg of body weight, formulated in egg yolk phosphatidate (EYP), via the tail vein. At a defined time period later the animals were irradiated with light from a laser source tuned to the wavelength of activation of the sensitizer. The power density of the laser was set at 75 mW/cm^2 with a total light dose of 200 J/cm^2.

Where [3] appears, read: drug dose 0.05 μm/Kg via tail vein in EYP, treatment 24 post injection.
Where [4] appears, read: drug dose 3 μm/Kg via tail vein in EYP, treatment 24 post injection.

`CCC1=C(CC)C2=NC1=Cc1c(CC)c(CC)c3[n]1[In]([Cl])[n]1c(c(CC)c(CC)c1=c1cc(S(=O)(=O)NCC(=O)O)cc4c1=NC(=C3)C4(CC)CC)=C2` [Compound 20]: the IC50 in series [1] was determined as 40 nM. In series [2], the ε is given as 52,000 M^−1 cm^−1 and the λmax is 684.

With `CCC1=C(CC)C2=NC1=Cc1c(CC)c(CC)c3[n]1[In]([Cl])[n]1c(c(CC)c(CC)c1=c1cc(C)cc4c1=NC(=C3)C4(CC)CC)=C2` [Compound 11], the “% Cure (30 days)” value with BA mammary carcinoma (drug dose 0.15 μm/Kg via tail vein in EYP, treatment 24 post injection) was determined as 90%. In series [2], the φ f amounted to 0.034, the ε is reported as 54,000 M^−1 cm^−1 and the λmax amounted to 687.

Take `CCC1=C(CC)C2=NC1=Cc1c(CC)c(CC)c3[n]1[In]([Cl])[n]1c(c(CC)c(CC)c1=c1cc(S(=O)(=O)NC(CO)(CO)CO)cc4c1=NC(=C3)C4(CC)CC)=C2` [Compound 19, InOEBCSO2NHC(CH2OH)3]: in series [1], the IC50 was 40 nM. Besides, in series [2], the φ f stood at 0.03, the ε is listed as 52,000 M^−1 cm^−1 and the λmax amounted to 684.

As for `CCC1=C(CC)C2=NC1=Cc1c(CC)c(CC)c3[n]1[In]([Cl])[n]1c(c(CC)c(CC)c1=c1cc(S(=O)(=O)NCCN(C)C)cc4c1=NC(=C3)C4(CC)CC)=C2` [Compound 15], the IC50 in series [1] came out at 50 nM. In the series on BA mammary carcinoma (setting [3]), the “% Cure (30 days)” value is 100%. Moreover, in series [2], the φ f result is listed as “˜0.03”, the ε was 52,000 M^−1 cm^−1 and the λmax worked out at 684.

Consider `C=Cc1c(C)c2[n]3c1=CC1=NC(=Cc4c(C)c5c([n]4[Sn]3([Cl])[Cl])C(=C3N=C(C=2)[C@@H](C)[C@@H]3CCC(=O)OC)CC5=O)C(CC)=C1C` [Compound 23], for which the IC50 in series [1] is more than 1000 nM. The “% Cure (30 days)” value in the series with BA mammary carcinoma (drug dose 2.0 μm/Kg via tail vein in EYP, treatment 24 or 6 post injection) is listed as 0%.

`CCC1=C(C)C2=NC1=Cc1c(C)c3c4[n]1[In]([Cl])[n]1c(c(C)c(C(C)=O)c1=C2)=CC1=NC(=C4CC3=O)[C@@H](CCC(=O)OC)[C@@H]1C` [Compound 26, Indium 2-desvinyl-2-acetyl pyropheophorbide]: the IC50 in series [1] is 60 nM. In addition, in the series with BA mammary carcinoma (drug dose 0.125 μm/Kg via tail vein in EYP, treatment 8 post injection), the “% Cure (30 days)” value was determined as 90%. For the same molecule, in series [2], the λmax is listed as 672.

In the case of `CCC1=C(CC)c2cc3[nH]c(c(CC)c3CC)c3cc(C)cc4c3nc(cc3[nH]c(cc1n2)c(CC)c3CC)C4(CC)CC` [Compound 3], the “% Cure (30 days)” value in the series with BA mammary carcinoma (drug dose 2.5 μm/Kg via tail vein in EYP, treatment 24 post injection) was 60%. In addition, in series [2], the φ f is on record as 0.35, the ε is on record as 35,000 M^−1 cm^−1 and the λmax is 658.

In the case of `CCC1=C(CC)C2=NC1=Cc1c(CC)c(CC)c3[n]1[In]([Cl])[n]1c(c(CC)c(CC)c1=c1cc(S(=O)(=O)NCCCCCO)cc4c1=NC(=C3)C4(CC)CC)=C2` [Compound 13], the IC50 in series [1] amounted to 40 nM. The “% Cure (30 days)” value with BA mammary carcinoma (drug dose 0.075 μm/Kg via tail vein in EYP, treatment 24 post injection) came to 80%. Further, in series [2], the φ f result is listed as “˜0.03”, the ε was 52,000 M^−1 cm^−1 and the λmax is reported as 684.

Consider `C=Cc1c(C)c2cc3nc(c4c5[nH]c(cc6nc(cc1[nH]2)C(C)=C6CC)c(C)c5C(=O)C4)[C@@H](CCC(=O)OC)[C@@H]3C` [Compound 22], for which the “% Cure (30 days)” value in the series with BA mammary carcinoma (drug dose 10.6 μm/Kg via tail vein in EYP, treatment 3 post injection) was 50%.

For “Indium 2-desvinyl-2-formyl pyropheophorbide [Compound 27]”, the IC50 in series [1] turned out to be 50 nM. Moreover, the “% Cure (30 days)” value in the series on BA mammary carcinoma (drug dose 0.1 μm/Kg via tail vein in EYP, treatment 8 post injection) is given as 90%. Moreover, the λmax in series [2] came out at 683.

Regarding `CCC1=C(CC)C2=NC1=Cc1c(CC)c(CC)c3[n]1[In]([Cl])[n]1c(c(CC)c(CC)c1=c1cc(S(=O)(=O)NCCCS)cc4c1=NC(=C3)C4(CC)CC)=C2` [Compound 18], the IC50 in series [1] came to 40 nM. Also, in series [2], the φ f was 0.03, the ε is recorded as 52,000 M^−1 cm^−1 and the λmax came out at 684.

For the molecule `CCC1=C(CC)C2=NC1=Cc1c(CC)c(CC)c3[n]1[Zn][n]1c(c(CC)c(CC)c1=c1cccc4c1=NC(=C3)C4(CC)CC)=C2` [Compound 4], the IC50 in series [1] is more than 1000 nM. In addition, in the series on BA mammary carcinoma (setting [4]), the “% Cure (30 days)” value came to 0%. For the same molecule, in series [2], the φ f amounted to 0.150, the ε is reported as 57,000 M^−1 cm^−1 and the λmax was found to be 678.

In the case of `CCC1=C(CC)C2=NC1=Cc1c(CC)c(CC)c3[n]1[In]([Cl])[n]1c(c(CC)c(CC)c1=c1cc(S(=O)(=O)N(CCO)CCO)cc4c1=NC(=C3)C4(CC)CC)=C2` [Compound 12], the IC50 in series [1] came out at 40 nM. The “% Cure (30 days)” value in the series on BA mammary carcinoma (setting [3]) is given as 90%. In series [2], the φ f result is “˜0.03”, the ε was 52,000 M^−1 cm^−1 and the λmax is on record as 684.

On to `CCC1=C(CC)C2=NC1=Cc1c(CC)c(CC)c3[n]1[In]([Cl])[n]1c(c(CC)c(CC)c1=c1cc(S(=O)(=O)NCCCO)cc4c1=NC(=C3)C4(CC)CC)=C2` [Compound 10, InOEBCSO2NH(CH2)3OH], for which the IC50 in series [1] lay within 100 to 125 nM. Further, the “% Cure (30 days)” value with BA mammary carcinoma (drug dose 0.1 μm/Kg via tail vein in EYP, treatment 24 post injection) is on record as 100%. In addition, in series [2], the φ f is 0.027, the ε is reported as 52,000 M^−1 cm^−1 and the λmax was determined as 684.

For `C=Cc1c(C)c2[n]3c1=CC1=NC(=Cc4c(C)c5c([n]4[In]3[Cl])C(=C3N=C(C=2)[C@@H](C)[C@@H]3CCC(=O)OC)CC5=O)C(CC)=C1C` [Compound 24], the “% Cure (30 days)” value in the series with BA mammary carcinoma (drug dose 0.2 μm/Kg via tail vein in EYP, treatment 6 or 8 post injection) came out at 80%.

Take `CCC1=C(CC)c2cc3[nH]c(c(CC)c3CC)c3cccc4c3nc(cc3[nH]c(cc1n2)c(CC)c3CC)C4(CC)CC` [Compound 1, Octaethylbenzochlorin]: in series [1], the IC50 was more than 1000 nM. For the same molecule, the “% Cure (30 days)” value in the series with BA mammary carcinoma (setting [4]) turned out to be 60%. In series [2], the φ f came to 0.347, the ε is recorded as 35,000 M^−1 cm^−1 and the λmax is reported as 658.

Take `CCC1=C(CC)C2=NC1=Cc1c(CC)c(CC)c3[n]1[In]([Cl])[n]1c(c(CC)c(CC)c1=c1cc(S(=O)(=O)NCCCCC(N)C(=O)O)cc4c1=NC(=C3)C4(CC)CC)=C2` (centres unmarked) [Compound 21, InOEBCSO2NH (CH2)4CH(NH2)CO2H]: the IC50 in series [1] is 40 nM. In series [2], the φ f turned out to be 0.03, the ε is 52,000 M^−1 cm^−1 and the λmax worked out at 684.

Consider `CCC1=C(C)C2=NC1=Cc1c(C)c3c4[n]1[Pd][n]1c(c(C)c(C(C)=O)c1=C2)=CC1=NC(=C4CC3=O)[C@@H](CCC(=O)OC)[C@@H]1C` [Compound 28], for which the IC50 in series [1] turned out to be 50 nM. The “% Cure (30 days)” value with BA mammary carcinoma (drug dose 0.2 μm/Kg via tail vein in EYP, treatment 8 post injection) worked out at 80%. In series [2], the λmax was determined as 653.

With `CCC1=C(CC)C2=NC1=Cc1c(CC)c(CC)c3[n]1[In]([Cl])[n]1c(c(CC)c(CC)c1=c1cc(S(=O)(=O)NCCOCCOCCOC)cc4c1=NC(=C3)C4(CC)CC)=C2` [Compound 16], in series [1], the IC50 is 40 nM. The “% Cure (30 days)” value in the series on BA mammary carcinoma (setting [3]) worked out at 80%. In addition, in series [2], the φ f entry was “˜0.03”, the ε is given as 52,000 M^−1 cm^−1 and the λmax is 684.
